Test results reported in patent US11674162B2, “Selective advantage in fermentation” (Ginkgo Bioworks, Inc., priority 2014, dated 2023).

What was measured:
[1] = test system: NS103; experiment: Growth progress in MOPS defined medium with different nitrogen sources; assay type: cell-based, Escherichia coli; settings: strain NS103, 0.25 mM as sole nitrogen source
Experimental: (§1) Vector and strain construction was as described in Examples 1-4. All vectors contain the ampicillin resistance gene, and 100 ug/mL ampicillin was added to all culture medium. These strains were grown in MOPS defined medium with different nitrogen sources.
(§2) An average of all four strains grown on different ammonium chloride concentrations from 0 to 1.5 mM is also shown as a standard curve for growth with limiting nitrogen. NS91 grown on melamine is similar to the 0 mM ammonium chloride control.
(§3) An average of all four strains grown on different ammonium chloride concentrations from 0 to 1.5 mM is also shown as a standard curve for growth with limiting nitrogen. NS91 grown on ammeline is similar to the 0 mM ammonium chloride control.
(§4) Cultures were grown aerobically at 37° C. with 100 mg/L ampicillin. Pre-cultures were grown in LB media with 100 mg/L ampicillin, washed once with an equal volume of MOPS media containing no nitrogen, and inoculated at 5% v/v of the final fermentation volume. The content of the MOPS medium is outlined in Table 9.

[2] = test system: NS91; experiment: as above; assay type: cell-based, Escherichia coli; settings: for ammonium chloride concentration giving similar growth: strain NS91 (control), 0.25 mM as sole nitrogen source; for growth with the compound as nitrogen source: control strain NS91, MOPS medium
Experimental: as §1, §2, §3, §4

[3] = test system: NS91; experiment: Maximum growth rate on ammeline as sole nitrogen source; assay type: cell-based, Escherichia coli; settings: strain NS91 (control), 0.5 mM ammeline as sole nitrogen source
Experimental: (§5) Strains can also be selected for improved utilization of melamine derived nitrogen sources, in one example NS88 was passaged for 11 serial transfers in MOPS defined medium with 0.5 mM ammeline as sole nitrogen source. After the final passage, single colonies were isolated, and one was designated as NS93. NS93 and NS91 were grown overnight in medium with 0.5 mM ammonium chloride as sole nitrogen source, and then inoculated in medium with 0.5 mM ammeline as sole nitrogen source.

[4] = test system: NS93; experiment: as above; assay type: cell-based, Escherichia coli; settings: strain NS93, 0.5 mM ammeline as sole nitrogen source
Experimental: as §5

[5] = test system: NS98; experiment: Optical density after 72 hours in defined YNB medium with different nitrogen sources; assay type: cell-based, Saccharomyces cerevisiae; settings: strain NS98, 10 mM nitrogen source, aerobic 30° C.
Experimental: (§6) Strains NS98 and NS99 are industrial S. cereviaie strains carrying plasmids pNC96 (hyg^R, and a codon optimized trzE from Rhodococcus sp. MEL and pNC97 (hyg^R, and a codon optimized trzE from Rhizobium leguminosarum), respectively. Strain NS100 is the same industral S. cerevisiae stain carrying plasmid pNC67 (hyg^R, nat^R) which serves as a control strain.
(§7) Strains NS98, NS99, and NS100 were grown in defined YNB medium with 10 mM urea and 100 μg/mL hygromycin to stationary phase aerobically at 30° C. 1/1000 v/v inoculations were then made into the same defined medium with either 10 mM urea, 10 mM biuret, or no additional nitrogen and grown under the same conditions.

[6] = test system: NS99; experiment: as above; assay type: cell-based, Saccharomyces cerevisiae; settings: strain NS99, 10 mM nitrogen source, aerobic 30° C.
Experimental: as §6, §7

[7] = test system: NS100; experiment: as above; assay type: cell-based, Saccharomyces cerevisiae; settings: strain NS100 (control)
Experimental: as §7
as §7, with “Additionally, strains NS100, NS101, NS111,” for “Strains NS98, NS99,”, “NS112” for “NS100”, “cyanamide,” for “biuret,”

[8] = test system: NS90; experiment: Growth progress in MOPS defined medium with different nitrogen sources; assay type: cell-based, Escherichia coli; settings: strain NS90, 1 mM nitrogen source
Experimental: as §1, §4

[9] = test system: NS101; experiment: Optical density after 72 hours in defined YNB medium with different nitrogen sources; assay type: cell-based, Saccharomyces cerevisiae; settings: strain NS101 (cah), 10 mM nitrogen source
Experimental: as §7, with “Additionally, strains NS100, NS101, NS111,” for “Strains NS98, NS99,”, “NS112” for “NS100”, “cyanamide,” for “biuret,”

[10] = test system: NS111; experiment: as above; assay type: cell-based, Saccharomyces cerevisiae; settings: strain NS111 (cah), 10 mM nitrogen source
Experimental: as §7, with “Additionally, strains NS100, NS101, NS111,” for “Strains NS98, NS99,”, “NS112” for “NS100”, “cyanamide,” for “biuret,”

[11] = test system: NS112; experiment: as above; assay type: cell-based, Saccharomyces cerevisiae; settings: strain NS112 (control), 10 mM nitrogen source
Experimental: as §7, with “Additionally, strains NS100, NS101, NS111,” for “Strains NS98, NS99,”, “NS112” for “NS100”, “cyanamide,” for “biuret,”

[12] = test system: NS100; experiment: Growth progress in defined medium, 96 well plate (FIG. 21); assay type: cell-based, Saccharomyces cerevisiae; settings: strain NS100 (control), 10 mM, YNB medium, 30° C.
Experimental: (§8) The optical density of NS100 and NS101 grown in defined medium with different nitrogen sources was assessed as follows. NS100 and NS101 were grown overnight in YPD medium, washed once in an equal volume of sterile water, and inoculated at 3.33% v/v. […] Data are averages of 3 replicate wells in a 96 well plate; 150 μL per well. 30° C., YNB medium contained 20 g/L glucose, 1.7 g/L YNB base medium without amino acids or ammonium sulfate, 5 g/L sodium sulfate, 100 μg/mL hygromycin, and either 10 mM urea, 10 mM cyanamide, or no nitrogen source. Inoculation was with 5 μL of culture pregrown for 24 hours in the same medium with urea as nitrogen source (FIG. 21).

[13] = test system: NS101; experiment: as above; assay type: cell-based, Saccharomyces cerevisiae; settings: strain NS101, 10 mM, YNB medium, 30° C.
Experimental: as §8

[14] = test system: NS101; experiment: Growth in rich YPD medium with and without cyanamide (FIG. 24); assay type: cell-based, Saccharomyces cerevisiae; settings: rich YPD medium with 10 mM cyanamide, 30° C.
Experimental: The optical density of NS100 and NS101 grown in rich YPD medium with 100 μg/mL hygromycin and with and without 10 mM cyanamide was assessed as follows. NS100 and NS101 were grown overnight in YNB medium, and inoculated at 3.33% v/v. […] Thus, cyanamide, in addition to functioning as a sole source of nitrogen, may also act as a deterrent for microbial growth. Data are averages of 3 replicate wells in a 96 well plate; 150 μL per well. 30° C., YPD medium or YPD medium with 10 mM cyanamide. Inoculation was with 5 μL of culture pregrown for 24 hours in the YNB medium with urea as nitrogen source (FIG. 24).

[15] = test system: NS88; experiment: Growth progress in MOPS defined medium with different nitrogen sources; assay type: cell-based, Escherichia coli; settings: strain NS88, 1 mM nitrogen source
Experimental: as §1, §4

[16] = test system: E. coli strains containing pNC121; experiment: Growth on melamine as sole nitrogen source (FIG. 18); assay type: cell-based, Escherichia coli; settings: 0.5 mM; E. coli K12, MG1655, B and Crooks strains containing pNC121
Experimental: FIGS. 16, 17, and 18 show E. coli strains derived from E. coli K12, E. coli MG1655, E. coli B, and E. coli Crooks (C) containing either pNC121 with the complete melamine utilization pathway, or pNC53, a control vector. See Tables 7 and 8 for strain details. All the strains containing pNC121 are able to grow on 0.5 mM melamine as sole nitrogen source (FIG. 18).
as §4

[17] = Table 10, 10 mM nitrogen source
[18] = Table 11, 10 mM nitrogen source

For `Nc1nc(N)[nH]c(=O)n1` [ammeline, Ammeline], which “ammonium chloride concentration giving similar growth” value [1] is on record?
The value was ~0.5 mM.

And the “ammonium chloride concentration giving similar growth” value [2]?
Its value is ~0 mM.

What about the maximum growth rate [3] of the same compound?
Its maximum growth rate is 0.024 h⁻¹.

What about the maximum growth rate [4] of the same compound?
The maximum growth rate was 0.087 h⁻¹.

`NC(=O)NC(N)=O` [biuret, Biuret] was tested. Which “Optical Density 600 nm” value [5] did it give?
Its value is 2.55.

And the “Optical Density 600 nm” value [6]?
Its value is 2.18.

What about the “Optical Density 600 nm” value [7, 17] of the same compound?
Its value is 1.21.

And the “ammonium chloride concentration giving comparable optical density” value [8]?
Its value is ~3 mM.

What about the “growth with the compound as nitrogen source” value [2] of the same compound?
The value was “does not grow”.

Which results are given for `N#CN` [cyanamide, Cyanamide]?
Optical Density 600 nm [7, 18]: 0.05; Optical Density 600 nm [9]: 4.66; Optical Density 600 nm [10]: 3.09; Optical Density 600 nm [11]: 0.15; optical density reached [12]: comparable to that with no nitrogen present in the medium; optical density reached [13]: comparable to that with urea; lag phase of NS101 relative to NS100 [14]: shorter lag phase

Which results are given for `Nc1nc(N)nc(N)n1` [melamine, Melamine]?
ammonium chloride concentration giving comparable optical density [15]: ~2 mM; growth with the compound as nitrogen source [2]: does not grow; ammonium chloride concentration giving similar growth [2]: ~0 mM; growth on the compound as sole nitrogen source [16]: able to grow

`NC(N)=O` [urea] was tested. Which “Optical Density 600 nm” value [5] did it give?
Its value is 5.09.

What about the “Optical Density 600 nm” value [6] of the same compound?
The value was 5.26.

And the “Optical Density 600 nm” value [7, 17]?
Its value is 5.22.

What about the “Optical Density 600 nm” value [7, 18] of the same compound?
The value was 3.12.

What about the “Optical Density 600 nm” value [9] of the same compound?
The value was 3.60.

And the “Optical Density 600 nm” value [10]?
Its value is 3.68.

And the “Optical Density 600 nm” value [11]?
Its value is 3.05.
